According to patent US10844077B2, “Thiazolyl-containing compounds for treating proliferative diseases” (Dana-Farber Cancer Institute, Inc., priority 2014, dated 2020):
Like-named read-outs stand apart in the source and are kept apart here.

Experiments:
Assay type in all cases: binding
broad panel of kinases [1] = target: broad panel of kinases (Homo sapiens, UniProt P04049); conditions: RAF1; 1 μM
broad panel of kinases [2] = target: broad panel of kinases (Homo sapiens, UniProt Q9Y243); conditions: AKT3; 1 μM
broad panel of kinases [3] = target: broad panel of kinases (Homo sapiens, UniProt Q8IU85); conditions: CAMK1D; 1 μM
broad panel of kinases [4] = target: broad panel of kinases (Homo sapiens, UniProt Q7L7X3); conditions: TAOK1; 1 μM
broad panel of kinases [5] = target: broad panel of kinases (Homo sapiens, UniProt Q9H4A3); conditions: WNK1; 1 μM
broad panel of kinases [6] = target: broad panel of kinases (Homo sapiens, UniProt P50613); conditions: CDK7; 1 μM
broad panel of kinases (Homo sapiens, UniProt P50613), sequence (P50613 2-346 limits assumed): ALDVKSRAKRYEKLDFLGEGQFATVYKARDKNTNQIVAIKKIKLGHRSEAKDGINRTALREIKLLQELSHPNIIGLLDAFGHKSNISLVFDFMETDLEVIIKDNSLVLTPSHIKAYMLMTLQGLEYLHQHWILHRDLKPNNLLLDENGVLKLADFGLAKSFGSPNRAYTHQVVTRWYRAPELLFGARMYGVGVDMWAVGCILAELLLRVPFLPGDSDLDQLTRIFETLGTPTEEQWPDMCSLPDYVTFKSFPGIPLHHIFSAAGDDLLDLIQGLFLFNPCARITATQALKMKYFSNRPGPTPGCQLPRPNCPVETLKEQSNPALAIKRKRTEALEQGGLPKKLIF

broad panel of kinases [7] = target: broad panel of kinases (Homo sapiens, UniProt O43293); conditions: DAPK3; 1 μM
broad panel of kinases [8] = target: broad panel of kinases (Homo sapiens, UniProt Q9NYY3); conditions: PLK2; 1 μM
broad panel of kinases [9] = target: broad panel of kinases (Homo sapiens, UniProt Q8IVW4); conditions: CDKL3; 1 μM
broad panel of kinases [10] = target: broad panel of kinases (Homo sapiens, UniProt P00533); conditions: EGFR; 1 μM
broad panel of kinases (Homo sapiens, UniProt P00533), sequence (P00533 25-1210 limits assumed): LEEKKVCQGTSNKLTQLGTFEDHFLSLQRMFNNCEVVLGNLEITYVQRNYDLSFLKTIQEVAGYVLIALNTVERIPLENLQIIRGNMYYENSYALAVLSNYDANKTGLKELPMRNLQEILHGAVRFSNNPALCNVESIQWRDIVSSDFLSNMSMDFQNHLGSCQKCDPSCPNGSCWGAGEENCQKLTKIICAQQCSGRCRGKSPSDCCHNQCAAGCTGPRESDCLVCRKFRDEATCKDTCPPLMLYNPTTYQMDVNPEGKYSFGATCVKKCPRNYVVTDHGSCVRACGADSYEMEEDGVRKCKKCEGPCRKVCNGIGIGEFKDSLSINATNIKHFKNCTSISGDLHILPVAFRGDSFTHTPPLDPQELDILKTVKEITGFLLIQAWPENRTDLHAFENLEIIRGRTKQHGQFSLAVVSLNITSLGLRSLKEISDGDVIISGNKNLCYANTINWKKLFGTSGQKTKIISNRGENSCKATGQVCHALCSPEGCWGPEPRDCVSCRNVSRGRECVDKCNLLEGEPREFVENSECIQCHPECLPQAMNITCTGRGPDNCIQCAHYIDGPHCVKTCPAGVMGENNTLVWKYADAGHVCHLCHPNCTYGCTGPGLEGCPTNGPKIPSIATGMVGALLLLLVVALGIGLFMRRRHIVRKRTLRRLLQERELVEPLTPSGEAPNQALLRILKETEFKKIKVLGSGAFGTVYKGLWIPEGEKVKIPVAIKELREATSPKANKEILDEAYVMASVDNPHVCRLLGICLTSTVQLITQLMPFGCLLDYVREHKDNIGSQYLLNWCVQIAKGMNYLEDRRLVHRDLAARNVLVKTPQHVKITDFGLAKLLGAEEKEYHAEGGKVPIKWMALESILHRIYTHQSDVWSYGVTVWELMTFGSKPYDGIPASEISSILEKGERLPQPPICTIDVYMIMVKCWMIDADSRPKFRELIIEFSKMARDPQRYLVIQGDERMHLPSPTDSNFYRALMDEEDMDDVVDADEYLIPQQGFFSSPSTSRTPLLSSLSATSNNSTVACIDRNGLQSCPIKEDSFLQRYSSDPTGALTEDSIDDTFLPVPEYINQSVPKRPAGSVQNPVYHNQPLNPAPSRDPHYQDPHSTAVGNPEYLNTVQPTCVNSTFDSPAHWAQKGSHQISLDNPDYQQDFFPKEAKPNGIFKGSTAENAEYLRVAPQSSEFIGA

broad panel of kinases [11] = target: broad panel of kinases (Homo sapiens, UniProt O75676); conditions: 1 μM
broad panel of kinases [12] = target: broad panel of kinases (Homo sapiens, UniProt Q86V86); conditions: PIM3; 1 μM
broad panel of kinases [13] = target: broad panel of kinases (Homo sapiens, UniProt P36896); conditions: ACVR1B; 1 μM
broad panel of kinases (Homo sapiens, UniProt P36896), sequence (P36896 24-505 limits assumed): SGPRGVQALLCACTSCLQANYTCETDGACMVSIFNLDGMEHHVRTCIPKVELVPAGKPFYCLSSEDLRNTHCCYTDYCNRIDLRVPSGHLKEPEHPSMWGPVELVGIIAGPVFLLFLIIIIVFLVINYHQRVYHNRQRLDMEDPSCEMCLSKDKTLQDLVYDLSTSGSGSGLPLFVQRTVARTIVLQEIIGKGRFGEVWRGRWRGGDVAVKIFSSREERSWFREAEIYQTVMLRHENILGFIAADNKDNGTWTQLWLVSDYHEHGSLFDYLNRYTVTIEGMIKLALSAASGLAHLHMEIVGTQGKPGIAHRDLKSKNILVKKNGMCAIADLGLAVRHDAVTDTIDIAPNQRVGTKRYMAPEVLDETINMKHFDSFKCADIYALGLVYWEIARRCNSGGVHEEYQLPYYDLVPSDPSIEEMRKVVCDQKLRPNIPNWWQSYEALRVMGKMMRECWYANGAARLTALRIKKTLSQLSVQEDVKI

broad panel of kinases [14] = target: broad panel of kinases (Homo sapiens, UniProt O75582); conditions: 1 μM
broad panel of kinases [15] = target: broad panel of kinases (Homo sapiens, UniProt P48730); conditions: CSNK1D; 1 μM
broad panel of kinases [16] = target: broad panel of kinases (Homo sapiens, UniProt P14616); conditions: INSRR; 1 μM
broad panel of kinases [17] = target: broad panel of kinases (Homo sapiens, UniProt Q99755); conditions: PIP5K1A; 1 μM
broad panel of kinases [18] = target: broad panel of kinases (Homo sapiens, UniProt P31749); conditions: AKT1; 1 μM
broad panel of kinases [19] = target: broad panel of kinases (Homo sapiens, UniProt Q9H2K8); conditions: TAOK3; 1 μM
broad panel of kinases [20] = target: broad panel of kinases (Plasmodium falciparum, UniProt P61075)
broad panel of kinases [21] = target: broad panel of kinases (Homo sapiens, UniProt P00519, Y253F); conditions: ABL1(Y253F)-phosphorylated; 1 μM
broad panel of kinases [22] = target: broad panel of kinases (Homo sapiens, UniProt Q12852); conditions: DLK; 1 μM
broad panel of kinases [23] = target: broad panel of kinases (Homo sapiens, UniProt P00519, H396P); conditions: 1 μM
broad panel of kinases [24] = target: broad panel of kinases (Homo sapiens, UniProt P42336, H1047L); conditions: PIK3CA(H1047L); 1 μM
broad panel of kinases [25] = target: broad panel of kinases (Homo sapiens, UniProt O75914); conditions: PAK3; 1 μM
broad panel of kinases [26] = target: broad panel of kinases (Homo sapiens, UniProt Q86Y07); conditions: VRK2; 1 μM
broad panel of kinases [27] = target: broad panel of kinases (Homo sapiens, UniProt Q9UF33); conditions: EPHA6; 1 μM
broad panel of kinases (Homo sapiens, UniProt Q9UF33), sequence (Q9UF33 23-1036 limits assumed): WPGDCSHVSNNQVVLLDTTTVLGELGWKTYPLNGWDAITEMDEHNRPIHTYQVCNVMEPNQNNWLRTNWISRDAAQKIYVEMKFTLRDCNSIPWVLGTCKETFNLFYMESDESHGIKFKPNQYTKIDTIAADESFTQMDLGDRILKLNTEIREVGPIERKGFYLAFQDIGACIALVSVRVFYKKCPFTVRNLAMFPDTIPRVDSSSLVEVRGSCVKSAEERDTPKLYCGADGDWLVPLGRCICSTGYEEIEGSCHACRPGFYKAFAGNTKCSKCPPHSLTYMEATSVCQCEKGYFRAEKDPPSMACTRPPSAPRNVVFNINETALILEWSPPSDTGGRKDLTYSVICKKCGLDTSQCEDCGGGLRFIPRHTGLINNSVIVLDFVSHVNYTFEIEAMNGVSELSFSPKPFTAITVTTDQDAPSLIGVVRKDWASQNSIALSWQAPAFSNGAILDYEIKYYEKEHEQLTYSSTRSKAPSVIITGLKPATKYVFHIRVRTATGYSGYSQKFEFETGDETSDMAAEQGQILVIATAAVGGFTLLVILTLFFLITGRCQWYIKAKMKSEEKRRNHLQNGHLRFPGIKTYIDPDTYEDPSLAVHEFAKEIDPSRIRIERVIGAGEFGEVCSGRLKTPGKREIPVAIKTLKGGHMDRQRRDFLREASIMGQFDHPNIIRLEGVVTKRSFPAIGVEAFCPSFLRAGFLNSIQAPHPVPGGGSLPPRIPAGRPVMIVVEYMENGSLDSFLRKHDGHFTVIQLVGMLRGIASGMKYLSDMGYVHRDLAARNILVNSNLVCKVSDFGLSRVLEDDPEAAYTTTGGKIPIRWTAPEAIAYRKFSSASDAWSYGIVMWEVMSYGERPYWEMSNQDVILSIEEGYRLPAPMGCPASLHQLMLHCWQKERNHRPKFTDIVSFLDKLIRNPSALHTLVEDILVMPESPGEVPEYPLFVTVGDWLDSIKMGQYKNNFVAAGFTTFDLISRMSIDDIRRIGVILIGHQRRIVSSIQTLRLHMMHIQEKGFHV

broad panel of kinases [28] = target: broad panel of kinases (Homo sapiens, UniProt P21860); conditions: ERBB3; 1 μM
broad panel of kinases [29] = target: broad panel of kinases (Homo sapiens, UniProt P53355); conditions: DAPK1; 1 μM
broad panel of kinases [30] = target: broad panel of kinases (Homo sapiens, UniProt P17948); conditions: FLT1; 1 μM
broad panel of kinases (Homo sapiens, UniProt P17948), sequence (P17948 27-1338 limits assumed): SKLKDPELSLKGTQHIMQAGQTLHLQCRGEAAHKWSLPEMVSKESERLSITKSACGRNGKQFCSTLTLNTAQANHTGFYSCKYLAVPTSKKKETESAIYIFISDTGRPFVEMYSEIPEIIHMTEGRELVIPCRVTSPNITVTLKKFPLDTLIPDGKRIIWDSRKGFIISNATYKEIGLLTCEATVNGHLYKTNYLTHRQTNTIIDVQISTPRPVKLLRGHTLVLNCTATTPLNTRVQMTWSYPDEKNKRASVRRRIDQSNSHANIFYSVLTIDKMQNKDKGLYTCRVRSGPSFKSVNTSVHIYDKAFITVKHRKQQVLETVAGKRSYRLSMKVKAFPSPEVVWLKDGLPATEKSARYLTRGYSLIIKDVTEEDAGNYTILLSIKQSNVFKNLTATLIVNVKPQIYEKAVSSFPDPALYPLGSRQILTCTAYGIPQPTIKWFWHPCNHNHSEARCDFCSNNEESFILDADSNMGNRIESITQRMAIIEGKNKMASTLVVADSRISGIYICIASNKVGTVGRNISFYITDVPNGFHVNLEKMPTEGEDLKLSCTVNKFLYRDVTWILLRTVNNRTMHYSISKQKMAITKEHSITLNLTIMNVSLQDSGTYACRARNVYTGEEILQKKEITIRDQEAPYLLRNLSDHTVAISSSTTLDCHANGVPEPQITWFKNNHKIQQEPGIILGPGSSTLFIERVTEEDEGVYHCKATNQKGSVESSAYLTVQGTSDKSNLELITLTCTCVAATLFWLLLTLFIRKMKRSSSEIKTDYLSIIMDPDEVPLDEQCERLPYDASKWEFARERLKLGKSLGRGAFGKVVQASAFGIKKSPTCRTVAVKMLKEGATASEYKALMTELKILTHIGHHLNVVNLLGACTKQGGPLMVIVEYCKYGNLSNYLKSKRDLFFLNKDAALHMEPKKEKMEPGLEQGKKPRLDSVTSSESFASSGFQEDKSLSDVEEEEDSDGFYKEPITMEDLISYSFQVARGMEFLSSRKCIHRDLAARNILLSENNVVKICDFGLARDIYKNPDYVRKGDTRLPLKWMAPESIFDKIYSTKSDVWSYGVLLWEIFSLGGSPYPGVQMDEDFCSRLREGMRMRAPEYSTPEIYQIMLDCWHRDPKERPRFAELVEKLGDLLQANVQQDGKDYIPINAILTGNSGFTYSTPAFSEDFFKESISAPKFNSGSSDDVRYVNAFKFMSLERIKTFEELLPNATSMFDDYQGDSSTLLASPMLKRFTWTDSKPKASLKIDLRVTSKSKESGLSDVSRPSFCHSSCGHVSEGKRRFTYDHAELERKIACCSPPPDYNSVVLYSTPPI

broad panel of kinases [31] = target: broad panel of kinases (Homo sapiens, UniProt O15197); conditions: EPHB6; 1 μM
broad panel of kinases [32] = target: broad panel of kinases (Homo sapiens, UniProt Q9BZL6); conditions: PRKD2; 1 μM
broad panel of kinases [33] = target: broad panel of kinases (Homo sapiens, UniProt Q9Y2H1); conditions: NDR2; 1 μM
broad panel of kinases [34] = target: broad panel of kinases (Homo sapiens, UniProt Q9BRS2); conditions: RIOK1; 1 μM
broad panel of kinases [35] = target: broad panel of kinases (Mycobacterium tuberculosis, UniProt P9WI81)
broad panel of kinases (Mycobacterium tuberculosis, UniProt P9WI81), sequence (P9WI81 2-626 limits assumed): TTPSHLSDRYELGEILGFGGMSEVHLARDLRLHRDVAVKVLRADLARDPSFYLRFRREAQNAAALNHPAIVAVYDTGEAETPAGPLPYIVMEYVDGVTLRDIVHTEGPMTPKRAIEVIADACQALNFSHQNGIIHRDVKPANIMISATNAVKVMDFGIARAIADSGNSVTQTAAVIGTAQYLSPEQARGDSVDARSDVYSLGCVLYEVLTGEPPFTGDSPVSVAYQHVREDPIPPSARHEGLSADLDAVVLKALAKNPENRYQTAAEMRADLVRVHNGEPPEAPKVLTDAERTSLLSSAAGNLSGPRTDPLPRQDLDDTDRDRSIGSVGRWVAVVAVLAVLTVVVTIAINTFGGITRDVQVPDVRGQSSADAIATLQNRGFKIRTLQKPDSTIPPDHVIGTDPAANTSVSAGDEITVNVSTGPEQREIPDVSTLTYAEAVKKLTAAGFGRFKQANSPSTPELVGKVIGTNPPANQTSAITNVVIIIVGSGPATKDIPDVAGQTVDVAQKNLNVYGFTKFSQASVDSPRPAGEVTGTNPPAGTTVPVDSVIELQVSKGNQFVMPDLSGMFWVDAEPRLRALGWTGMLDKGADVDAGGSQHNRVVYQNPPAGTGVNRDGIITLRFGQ

broad panel of kinases [36] = target: broad panel of kinases (Homo sapiens, UniProt O00329); conditions: PIK3CD; 1 μM

SMILES	percent of control binding remaining (lower = stronger binding) (broad panel of kinases [1]) [%]	percent of control binding remaining (lower = stronger binding) (broad panel of kinases [2]) [%]	percent of control binding remaining (lower = stronger binding) (broad panel of kinases [3]) [%]	percent of control binding remaining (lower = stronger binding) (broad panel of kinases [4]) [%]	percent of control binding remaining (lower = stronger binding) (broad panel of kinases [5]) [%]	percent of control binding remaining (lower = stronger binding) (broad panel of kinases [6]) [%]	percent of control binding remaining (lower = stronger binding) (broad panel of kinases [7]) [%]	percent of control binding remaining (lower = stronger binding) (broad panel of kinases [8]) [%]	percent of control binding remaining (lower = stronger binding) (broad panel of kinases [9]) [%]	percent of control binding remaining (lower = stronger binding) (broad panel of kinases [10]) [%]	percent of control binding remaining (lower = stronger binding) (broad panel of kinases [11]; RPS6KA4(Kin.Dom.1-N-terminal)) [%]	percent of control binding remaining (lower = stronger binding) (broad panel of kinases [11]; RPS6KA4(Kin.Dom.2-C-terminal)) [%]	percent of control binding remaining (lower = stronger binding) (broad panel of kinases [12]) [%]	percent of control binding remaining (lower = stronger binding) (broad panel of kinases [13]) [%]	percent of control binding remaining (lower = stronger binding) (broad panel of kinases [14]; RPS6KA5(Kin.Dom.1-N-terminal)) [%]	percent of control binding remaining (lower = stronger binding) (broad panel of kinases [14]; RPS6KA5(Kin.Dom.2-C-terminal)) [%]	percent of control binding remaining (lower = stronger binding) (broad panel of kinases [15]) [%]	percent of control binding remaining (lower = stronger binding) (broad panel of kinases [16]) [%]	percent of control binding remaining (lower = stronger binding) (broad panel of kinases [17]) [%]	percent of control binding remaining (lower = stronger binding) (broad panel of kinases [18]) [%]	further results
C=CC(=O)N1CC[C@H](Nc2nc(CN3CCOCC3)cc(Nc3ncc(C(=O)Nc4c(C)cccc4C)s3)n2)C1 [Example I-2]	26	90	100	93	100	94	89	92	98	5.6	100	96	97	68	98	94	100	96	92	95	percent of control binding remaining (lower = stronger binding) (broad panel of kinases [19]): 81%; % change compared to control (broad panel of kinases [20]): 100%; percent of control binding remaining (lower = stronger binding) (broad panel of kinases [21]): 0.1%; percent of control binding remaining (lower = stronger binding) (broad panel of kinases [22]): 98%; percent of control binding remaining (lower = stronger binding) (broad panel of kinases [23]; ABL1(H396P)-nonphosphorylated): 0%; percent of control binding remaining (lower = stronger binding) (broad panel of kinases [23]; ABL1(H396P)-phosphorylated): 0%; percent of control binding remaining (lower = stronger binding) (broad panel of kinases [24]): 84%; percent of control binding remaining (lower = stronger binding) (broad panel of kinases [25]): 75%; percent of control binding remaining (lower = stronger binding) (broad panel of kinases [26]): 94%; percent of control binding remaining (lower = stronger binding) (broad panel of kinases [27]): 100%; percent of control binding remaining (lower = stronger binding) (broad panel of kinases [28]): 0.1%; percent of control binding remaining (lower = stronger binding) (broad panel of kinases [29]): 100%; percent of control binding remaining (lower = stronger binding) (broad panel of kinases [30]): 93%; percent of control binding remaining (lower = stronger binding) (broad panel of kinases [31]): 7.7%; percent of control binding remaining (lower = stronger binding) (broad panel of kinases [32]): 100%; percent of control binding remaining (lower = stronger binding) (broad panel of kinases [33]): 96%; percent of control binding remaining (lower = stronger binding) (broad panel of kinases [34]): 90%; % change compared to control (broad panel of kinases [35]): 73%; percent of control binding remaining (lower = stronger binding) (broad panel of kinases [36]): 79%
C=CC(=O)N1CC[C@H](Nc2nccc(Nc3ncc(C(=O)Nc4c(C)cccc4C)s3)n2)C1 [Example I-3]	26	81	90	98	95	94	84	76	81	2.6	100	100	89	100	88	52	99	100	91	95	percent of control binding remaining (lower = stronger binding) (broad panel of kinases [19]): 91%; % change compared to control (broad panel of kinases [20]): 100%; % change compared to control (broad panel of kinases [21]): 0.1%; percent of control binding remaining (lower = stronger binding) (broad panel of kinases [22]): 100%; % change compared to control (broad panel of kinases [23]; ABL1(H396P)-nonphosphorylated): 0.05%; % change compared to control (broad panel of kinases [23]; ABL1(H396P)-phosphorylated): 0%; percent of control binding remaining (lower = stronger binding) (broad panel of kinases [24]): 100%; percent of control binding remaining (lower = stronger binding) (broad panel of kinases [25]): 51%; percent of control binding remaining (lower = stronger binding) (broad panel of kinases [26]): 70%; percent of control binding remaining (lower = stronger binding) (broad panel of kinases [27]): 100%; percent of control binding remaining (lower = stronger binding) (broad panel of kinases [28]): 0.8%; percent of control binding remaining (lower = stronger binding) (broad panel of kinases [29]): 100%; percent of control binding remaining (lower = stronger binding) (broad panel of kinases [30]): 86%; percent of control binding remaining (lower = stronger binding) (broad panel of kinases [31]): 4.6%; percent of control binding remaining (lower = stronger binding) (broad panel of kinases [32]): 100%; percent of control binding remaining (lower = stronger binding) (broad panel of kinases [33]): 58%; percent of control binding remaining (lower = stronger binding) (broad panel of kinases [34]): 82%; % change compared to control (broad panel of kinases [35]): 91%; percent of control binding remaining (lower = stronger binding) (broad panel of kinases [36]): 85%
